Laboratory results from publication PMC7870753, “Population pharmacokinetics of ATR inhibitor berzosertib in phase I studies for different cancer types” (Cancer Chemotherapy and Pharmacology, 2020).
Read-outs that look alike come from different tables or passages of the source.

Columns and labels:
[1] = Population PK analysis (non-linear mixed-effect, two-compartment linear model) of berzosertib plasma concentrations, Studies 001 and 002; format: in vivo; details: for cov (Q, V2) / cov (V1, Q) / cov (V1, V2): covariance; for clearance: human, plasma, read-out: Clearance CL (converted)
Description: Longitudinal berzosertib plasma concentration and dosing data from the two phase I clinical trials, described above, were available for the analysis. The studies were performed in accordance with the Declaration of Helsinki; all participants provided written informed consent before blood samples were collected.
Study 001 (Online Resource Figure S1) was a phase I, open-label, first-in-human multiple ascending dose study to investigate the safety, tolerability, and PK of berzosertib alone and in combination with cytotoxic chemotherapy in patients with advanced solid tumors. The RP2D or maximum tolerated dose was determined in dose escalation parts A and B with further evaluation of safety and efficacy in expansion cohorts (parts C1–3). PK data were available from 170 patients who received twice-weekly 1-h intravenous infusions of berzosertib (18–210 mg/m^2) during a 7–14-day monotherapy lead-in. This preceded combination with chemotherapies, administered on day 1, and berzosertib administered on days 2 and 9 every 21 days following (1) gemcitabine, or cisplatin and gemcitabine (54 patients, Part A); (2) cisplatin (29 patients, Part B); (3) gemcitabine in patients with non-small cell lung cancer (NSCLC; 36 patients, Part C1); (4) cisplatin in patients with triple-negative breast cancer (TNBC) basaloid subtype and BRCA wild type (37 patients, Part C2); cisplatin or carboplatin in patients with platinum-resistant small cell lung cancer (SCLC; 14 patients, Part C3). Berzosertib was also evaluated in combination with irinotecan in a subsequent study cohort (Part B2). In Study 001, Parts A and B, rich PK sampling (pre-dose, 0.5, 1 h (end of infusion), 1.5, 2, 4, 8, 24, 48, and 72 h after the start of infusion) was performed for most patients following berzosertib monotherapy in the lead-in. Similar rich PK sampling was conducted on cycle 1 days 2 through 5 after the first dose of berzosertib in combination with other agents in study parts A and B or during dose escalation. Additional sparse samples (pre-dose and 2 h after the end of infusion) were taken during cycle 1, day 9 and cycle 2, day 2. In the expansion cohorts Parts C1, C2, and C3, limited PK sampling was performed on cycle 1 day 2: pre-dose, 0.5, 1 h (end of infusion), 1.5, 2, 4, and (optionally) 8 h after the start of infusion. Similar sampling was performed on cycle 1, day 9 on a portion of the participants before being removed by amendment.
Study 002 (Online Resource Figure S1) was a phase I, open-label, multiple ascending dose study to investigate the safety, tolerability, and PK/PD profile of berzosertib as a single agent and in combination with carboplatin or carboplatin and paclitaxel in patients with advanced solid tumors. PK data were available from 70 patients who received 1-h intravenous infusions of berzosertib (1) as a single agent once weekly (11 patients, Part A1); (2) as a single agent twice weekly (6 patients, Part A2); (3) on days 2 and 9 every 21 days following carboplatin on day 1 (23 patients, Part B1); (4) on days 2 and 9 every 21 days following carboplatin and paclitaxel on day 1 (15 patients, Part B2); (5) on days 2 and 9 following carboplatin on day 1 every 21 days in patients with advanced solid tumors and lymphoma with defects in the DDR (15 patients, Part C). In Study 002, in all study parts, rich PK sampling (pre-dose, 0.5, 1 h (end of infusion), 1.5, 2, 4, 8, 24, and 48 h after start of infusion) was performed after the first dose of berzosertib. In Part A1, additional sparse samples (pre-dose, 0.5–2 h after the end of infusion) were collected on cycle 1, day 8 and day 15. […]

p-Chk1 = tested on: p-Chk1; set-up: method as in earlier work; details: cited from earlier work
[2] = cited from earlier work
CYP3A4 = details: based on in vitro data; cited from earlier work
[3] = cited from earlier work; remark: listed apart in the source
[4] = tested on: patient-derived non-small cell lung tumor xenografts; set-up: method as in PMID 25010037; details: multiple patient-derived non-small cell lung tumor xenografts; cited from earlier work
[5] = tested on: acute myeloid leukemia cells; set-up: method as in PMID 29789314; details: in combination with gemcitabine; cited from earlier work
acute myeloid leukemia = tested on: acute myeloid leukemia; set-up: method as in PMID 29789314; details: orthotopic mouse model, in combination with gemcitabine; cited from earlier work
pancreatic cancer cells = tested on: pancreatic cancer cells; set-up: method as in PMID 23222511, PMID 22825331; details: pancreatic cancer cells vs normal cells; cited from earlier work
[6] = tested on: pancreatic cancer xenografts; set-up: method as in PMID 23222511, PMID 22825331; details: after radiation and gemcitabine-based chemoradiation; cited from earlier work
[7] = full covariate model, typical patient, intravenous infusion

Q: For CNCc1ccc(-c2cc(-c3nc(-c4ccc(S(=O)(=O)C(C)C)cc4)cnc3N)on2)cc1 [berzosertib, 5-(4-(Isopropylsulfonyl)phenyl)-3-(3-(4-((methylamino)methyl)phenyl)isoxazol-5-yl)pyrazin-2-amine], which Additive residual error ([1]; base model) is on record?
A: 1.9 ng/mL

Q: What about the “Central volume V1” value ([1]; base model) of the same molecule?
A: 111 L

Q: What about the “Peripheral volume V2” value ([1]; base model) of the same molecule?
A: 861 L

Q: And the “Proportional residual error [sd]” value ([1]; base model)?
A: 0.22

Q: And the “cov (Q, V2)” value ([1]; base model)?
A: 0.089

Q: What about the “cov (V1, Q)” value ([1]; base model) of the same molecule?
A: 0.26

Q: What about the “cov (V1, V2)” value ([1]; base model) of the same molecule?
A: 0.093

Q: What about the “IIV on V1 [var]” value ([1]; base model, variance) of the same molecule?
A: 0.38

Q: And the “IIV on Q [var]” value ([1]; base model, variance, first line so headed (r14))?
A: 0.24

Q: And the “IIV on Q [var]” value ([1]; base model, variance, second line so headed (r16))?
A: 0.071

Q: And the “PK interaction with evaluated chemo-combinations” value ([1]; berzosertib with gemcitabine, cisplatin, carboplatin, paclitaxel combinations)?
A: no evidence of a clinically significant PK interaction

Q: What about the “V1 lower in female patients than in male patients” value ([1]; female vs male patients) of the same molecule?
A: 15.8%

Q: What about the Additive residual error ([1]; full covariate model) of the same molecule?
A: 1.73 ng/mL

Q: And the “Proportional residual error [sd]” value ([1]; full covariate model)?
A: 0.22

Q: What about the “cov (Q, V2)” value ([1]; full covariate model) of the same molecule?
A: 0.090

Q: What about the “cov (V1, Q)” value ([1]; full covariate model) of the same molecule?
A: 0.25

Q: What about the “cov (V1, V2)” value ([1]; full covariate model) of the same molecule?
A: 0.081

Q: What about the “Central volume V1” value [1, 7] of the same molecule?
A: 118 L

Q: And the “Peripheral volume V2” value [1, 7]?
A: 1030 L

Q: What about the “IIV on Q [var]” value ([1]; full covariate model, variance) of the same molecule?
A: 0.24

Q: And the “IIV on V1 [var]” value ([1]; full covariate model, variance)?
A: 0.32

Q: What about the “IIV on V2 [var]” value ([1]; full covariate model, variance) of the same molecule?
A: 0.047

Q: And the “increase for V1” value ([1]; high extreme of albumin)?
A: 18%

Q: And the “median increase in CL” value ([1]; high extreme of body weight)?
A: 12%

Q: And the “median increase in V1” value ([1]; high extremes of tumor size at baseline)?
A: 24%

Q: What about the clearance ([1]; intravenous, base model) of the same molecule?
A: 933 mL/min

Q: And the clearance ([1]; full covariate model, typical patient, intravenous infusion, 240 patients, 18–480 mg/m^2)?
A: 1080 mL/min

Q: What about the “median decrease for V2” value ([1]; low extreme of age) of the same molecule?
A: 16.7%

Q: What about the “median decrease for V1” value ([1]; low extreme of albumin) of the same molecule?
A: 28.6%

Q: What about the “decrease in CL” value ([1]; low extreme of body weight) of the same molecule?
A: 9%

Q: And the “higher CL in patients with TNBC” value ([1]; patients with TNBC vs female patients with other tumor types)?
A: 42%

Q: What about the “total plasma concentration needed to reach 50% of maximal inhibition (IC50) of p-Chk1 in humans” value (p-Chk1; estimated from multiple preclinical tumor models with carboplatin, irinotecan, cisplatin or gemcitabine, adjusted for species differences in plasma protein binding) of the same molecule?
A: approximately 110 ng/mL

Q: And the “inhibition of p-Chk1” value (p-Chk1; tumor-bearing mice, in combination with various chemotherapies)?
A: dose-dependent inhibition of p-Chk1

Q: What about the “PK linearity over the dose range” value ([2]; 18–480 mg/m^2) of the same molecule?
A: linear

Q: And the renal excretion ([2]; Study 001)?
A: 5–6%

Q: And the terminal half-life ([2]; patients, intravenous, 18–480 mg/m^2)?
A: approximately 17 h

Q: And the “elimination via metabolism, enzyme” value (CYP3A4)?
A: mainly mediated by CYP3A4

Q: What about the “recommended phase II dose (RP2D)” value ([3]; days 2 and 9 following 75 mg/m^2 cisplatin (day 1)) of the same molecule?
A: 140 mg/m^2

Q: What about the “recommended phase II dose (RP2D)” value ([3]; days 2 and 9 following 1000 mg/m^2 gemcitabine (days 1 and 8)) of the same molecule?
A: 210 mg/m^2

Q: And the “recommended phase II dose (RP2D)” value ([3]; days 2 and 9 following carboplatin AUC 5 (day 1))?
A: 90 mg/m^2

Q: And the “efficacy in combination with cisplatin” value [4]?
A: dramatically enhanced the efficacy of cisplatin

Q: What about the sensitization of cells [5] of the same molecule?
A: acutely sensitized acute myeloid leukemia cells

Q: What about the survival (acute myeloid leukemia) of the same molecule?
A: increased survival

Q: What about the “sensitization to radiation and/or gemcitabine” value (pancreatic cancer cells) of the same molecule?
A: selectively sensitized pancreatic cancer cells but not normal cells

Q: What about the “growth delay of xenografts” value [6] of the same molecule?
A: markedly prolonged growth delay

Q: And the “normal cell or tissue toxicity” value [6]?
A: without augmenting normal cell or tissue toxicity
